What was measured:
Caco-2 cells = assay: Caco-2 permeability; type: in vitro ADME
Experimental: (§1) Caco-2 cells were cultured for 21 days on a Transwell 96-well plate. The basal plate for changing the media was prepared by filling all wells of a 96-well sterile plate with 200 μL of Caco-2 media and placing it into an incubator. The apical section of the plate was lifted and lowered onto an empty basal plate. From the apical compartments containing 115 μL of cell media, 85 μL of the cell culture media was aspirated and replaced with 85 μL of fresh cell culture media. The basal plate was removed from the incubator and placed into a cell culture hood, while the apical section of the plate was returned to the basal plate and placed into the incubator.
(§2) Cells were fed one or two days prior to assay. A fresh basal plate was prepared by adding 200 μL of cell media to all wells and placing the plate in an incubator. The plate was then transferred from the incubator to the cell culture hood, where the apical compartment was lifted and placed onto an empty basal plate. 85 μL of media was removed from the apical wells and replaced with 85 μL of fresh media. The apical compartment of the plate was transferred to a basal plate and returned to the incubator.
(§3) On the day of the assay, 1 mL of 500-fold diluted compound solution was prepared in transport buffer. 62.5 μl of the prepared solution was used for the apical compartment, while 130 μl was used in the basal compartment. TEER measurements of the plate were taken. The dilutions were incubated for 15 minutes at 37° C. Basal assay plates were prepared by filling A→B wells of a 96-well sterile plate with 250 μl of transport buffer or B→A wells with 130 μl of diluted compound/control and 130 μl of HBSS and mixing 6-10 times with a multichannel pipette. 10 μl of samples were then collected form the basal compartments of the B→A wells for TO into the Quench Plates (shallow polypropylene plate, leaving 250 μl in each well). The basal assay plates were then placed into the incubator until use. The Caco-2 plate was placed in the hood and the apical section was lifted and placed onto an empty basal plate. 85 μl of the Caco-2 media was removed from the apical compartments containing 115 μl of cell culture media and replaced with 85 μl of fresh transport media. This was repeated twice for a total of 3 washes. 52.5 μl of buffer was then removed from the apical wells of the Caco-2 ready plates (leaving 62.5 μl buffer in the wells) and replaced with 62.5 of the diluted compound or control for the A→B wells or 52.5 μl of fresh transport buffer for the B→A wells. The total volume in the apical wells was assumed to be 125 μl for A→B and 115 μl for B→A. The apical wells were gently mixed 2-3 times with a multichannel pipette set to 50 μl and 10 μl of sample was collected from the apical compartments of A→B wells for TO into the TO Quench plates (shallow polypropylene plate). The total volume in all apical wells was 115 μl. The basal plate was removed from the incubator and transferred to the apical section of the basal plate and returned to the incubator. The TO samples were then diluted with 40 μl of transport buffer and 100 μl of quench solution was added. The cells were then kept cold. At T 2 hrs, 10 μl of sample was collected from all apical compartments and B→A basal compartments. 50 μl of sample was collected from the A→B compartments. The collected 10 μl of sample was then diluted with 40 μl of transport buffer. 100 μl of quench solution was then added to all T 2 hrs samples. After mixing, 50 μl of all TO and T 2 hrs samples were transferred to sample plates and diluted with 100 μl MilliQ water for bioanalysis. Final TEER measurements were taken after the completion of the assay.

Caco-2 permeability = type: in vitro ADME; details: human, Caco-2
Experimental: as §1, §2, §3

GM-CSF induced pSTAT5 = GM-CSF induced pSTAT5 assay in CellSensor irf1-bla TF-1 cells; type: cell-based; details: Homo sapiens, GM-CSF 1 ng/mL, read-out: Cellular selectivity (GM-CSF induced pSTAT5)
Experimental: The CellSensor irfl-bla TF-1 cell line (LifeTechnologies, K1657) was cultured in RPMI 1640 Medium (Invitrogen 72400-047), 10% Fetal Bovine Serum (Invitrogen, 26400044), 1 mM Sodium pyruvate (Life Technologies, 11360039), 1% MEM NEAA (Life Technologies, 11140-035), 2 ng/ml of human recombinant GM-CSF (Fisher, PHC2015), 1% Penicillin/Streptomycin (Life Technologies, 15140-122) and 5 µg/ml of Blasticidin (ThermoFisher, A1113903).
The cell line was seeded in a T75 flask at 13×10^6 cells/50 mL in starvation medium (Opti-MEM™ I Reduced Serum Medium, no phenol red (Life Technologies, 11058-021), 1 mM Na pyruvate (Life Technologies, 11360039), 1% MEM NEAA (Life Technologies, 11140-035), and 1% Penicillin/Streptomycin (Life Technologies, 15140-122)) for 16 hours at 37° C. under 5% CO2 the day before the assay.
For the assay, CellSensor irfl-bla TF-1 cells were seeded at 30 000 cells/32 μL (starvation medium)/well in a 384-well plate.
Compounds were added on the cells in 4 μL (starvation medium)/well at 10× the final concentration. They were incubated for 30 minutes at 37° C.
Human recombinant carrier-free GM-CSF (ThermoFisher, ref PHC2015) was added to the wells in 4 μL (starvation medium)/well at 10×. The final concentration was 1 ng/mL. Control wells without GM-CSF treatment were added. Plates were incubated for 5 hours at 37° C.
6× LiveBlazer-FRET substrate (Invitrogen, K1085) was added to the wells at 8 μL/well. The substrate was prepared shortly before use by mixing 6 μL of solution A and 60 μL of solution B to 934 μL of solution C. Plates were incubated for 2.5 hours at room temperature in the dark. The plates were read on an Envision (Perkin Elmer) with an excitation at a wavelength of 409 nm and two wavelengths for the emission 520 nm and 450 nm. The ratio between the […] emission was used to calculate the IC50s.
The IC50 for the inhibition of pSTAT5 was calculated with the XLfit software using the 4 Parameter Logistic Model or Sigmoidal Dose-Response Model (model 205).

[1] = Mouse plasma pharmacokinetics, PO 5 mg/kg; type: in vivo
Experimental: The following example describes the methods used to evaluate the pharmacokinetics of TYK2 inhibitors in vivo following dosing of a compound of the invention.
The pharmacokinetics of test compounds were evaluated in either male CD-1 mice or male C57BL/6 mice when administered by oral gavage and IV bolus injection. The animals were allowed free access to food and water before administration. The plasma samples were analyzed by LC-MS/MS and the concentration of test compound at each time point was determined by linear regression. Pharmacokinetic parameters were calculated from the plasma concentrations by non-compartmental modeling using WinNonlin 8.2.
Oral composition. To prepare a pharmaceutical composition for oral delivery, the test articles described herein were dissolved in DMSO and then mixed with necessary volume of PEG400 followed by […] in water or 50% Kolliphor HS 15 in saline to provide the final concentrations of 0.5 mg/mL or 1 mg/mL (Table 8). The resultant mixtures were suitable for oral administration.
The PK parameters measured in mouse plasma after treatment with TYK2 inhibitor compounds via PO (oral administration) at 5 mg/kg are summarized below in Tables 9-11.

Row | SMILES | Caco-2 Papp, A-B (Caco-2 cells) | Papp A→B at 2 h (Caco-2 permeability) | efflux ratio at 2 h (Caco-2 permeability) | IC50 (GM-CSF induced pSTAT5) | Half-life (t1/2) [1] | Maximum plasma concentration (Cmax) [1] | Total systemic exposure (AUCinf) [1]
1 | C[C@@H](c1ccc(Nc2cc(Nc3ncc(F)cc3S(C)(=O)=O)ncn2)nc1)N1CC2(COC2)C1 [Compound 2, (S)—N^4-(5-(1-(2-oxa-6-azaspiro[3.3]heptan-6-yl)ethyl)pyridin-2-yl)-N^6-(5-fluoro-3-(methylsulfonyl)pyridin-2-yl)pyrimidine-4,6-diamine] | 7.51 ×10⁻⁶ cm/s | ~7.2 ×10⁻⁶ cm/s | 2.2 | > 10 µM | †† (††: 1.0-1.5) | ††† (†††: >1500) | ††† (†††: >2000)
2 | C[C@@H](c1ccc(Nc2cc(Nc3ncccc3S(C)(=O)=O)ncn2)nc1)N1CC2(COC2)C1 [Compound 1, (S)—N^4-(5-(1-(2-oxa-6-azaspiro[3.3]heptan-6-yl)ethyl)pyridin-2-yl)-N^6-(3-(methylsulfonyl)pyridin-2-yl)pyrimidine-4,6-diamine] | 6.02 ×10⁻⁶ cm/s | ~6.02 ×10⁻⁶ cm/s | 1.38 | 4 to 10 µM | †† (††: 1.0-1.5) | † (†: <800) | †† (††: 1000-2000)

Reference: US20260048051A1, “TREATMENT OF INFLAMMATORY BOWEL DISEASE” (Atomwise Inc., priority 2024, published 2026)
